In experiment [1] the target is T1, WWP1 (Homo sapiens, UniProt Q9H0M0).
T1 construct: purchased Ubiquigent 63-0034-025/30033/D
In words: WWP1 MALDI-MS ubiquitin depletion assay (auto-ubiquitination). The format is biochemical. Conditions: 30 min pre-incubation, 90 minutes at 37° C. The procedure: Modulators designed in these ways were tested for HECT domain E3 ligase activity in a MALDI TOF assay of auto-ubiquitination (De Cesare et al, Cell Chem. Biol, 2018, 25, 1117)
UBE1 (E-305 Boston Biochem), UBE2D1 (E2-616 Boston Biochem), WWP1 (Ubiquigent #63-0034-025/30033/D), ubiquitin variants (Boston Biochem; ubiquitin: U-100H; WT-His6-Ub: U-530; K27R-His6-Ub:UM-HK27R; K27O-His6-Ub: UM-HK27O), alpha-cyano-4-hydroxycinnamic acid (CHCA), ATP, trifluoroacetic acid (Millipore Sigma, St. Louis, Mo.), 384-well round-bottom polypropylene microplates (781280, Greiner, Stonehouse, UK), 384-well Anchorchip MALDI targets and Peptide Calibration Standard II (Bruker Daltonics, Billerica, Mass.).
Protocol: The WWP1 ubiquitin depletion assay consists of recombinant UBE1 (5 nM), UBE2D1 conjugating enzyme (60 nM) and WWP1 ligase (50 nM) in a 10 mM HEPES pH 8.0 containing 0.1 mg/mL BSA, 10 mM MgCl2, 1 mM ATP and 1500 nM ubiquitin. Screening was performed by dispensing 3.5 μL of an enzyme solution containing UBE1 (10 nM), UBE2D1 (120 nM), WWP1 (100 nM), ubiquitin ([…]) to a 384-well round bottom polypropylene plates followed by incubation at 37° C. for 30 min. Reactions were initiated by the addition of 3.5 μL of an ATP solution (2000 nM) then incubated at 37° C. for 90 minutes before being quenched by the addition of 5 μL of a 50 mM EDTA solution containing 750 nM of a ubiquitin labelled with a histidine expression tag (m/z=9460.0 Da).
For detection of ubiquitin and the ubiquitin-6His internal standards, 50 nL of quenched reaction was dispensed onto a 384-well Anchorchip MALDI target plate (Bruker) pre-coated with a uniform layer of CHCA crystals immediately followed by 200 nL of a 3 mg/mL CHCA matrix solution (6 mg of CHCA dissolved in 0.7 mL of 100% ethanol and 1.3 mL of 0.31% aqueous TFA) using a TTP Labtech Mosquito liquid handler. Spectra for all reactions were acquired on a Bruker AutoFlex II in positive linear TOF mode from 1000 laser shots with ion suppression below 4000 Da. Spectra were analyzed for response using a centroid peak-fitting algorithm to quantify ubiquitin (m/z=8564.0 Da) and ubiquitin-6His (m/z=9460.0 Da) followed taking the ratio of intensities of ubiquitin and the ubiquitin-6His internal standard.
For compound screening, 140 nL of diluted compound in 100% DMSO was added to the WWP1 enzyme solution and pre-incubated for 30 minutes prior to reaction initiation.

The next experiment relates to DU-145 cells. The experiment is described as follows: Cellular proliferation assay (MTS) in DU-145 cells. The format is cell-based. Conditions: Homo sapiens, 72 hours of incubation, read-out: IC50 values for selected compounds in DU-145 cells. The procedure: DU-145 cells were trypsinized, counted via Trypan blue method and resuspended in DMEM complete medium (10% FBS with Pen-strep antibiotics) as described in Lieu et al, Mol Cel Endorinol, 87:19-28, 1992. Cells were seeded at a density of 100 cells per well in 1001 volume of 96-well cell culture plate and were incubated overnight at 37° C. in 5% CO2 incubator. The next day, cells were given fresh media and the test compounds were added in different concentrations. After 72 hours of incubation, MTS reagent (procured from Promega) was added to the cells and they were incubated for an additional 2 hours. Finally, the plates read in the absorbance mode at 490 nm using an ELISA plate reader (Perkin Elmer Victor X3 plate reader). The % growth values were calculated as [(T−T0)/(C−T0)]×100, where T0 is the OD of cells at the time of compound addition, C is the vehicle control, T is the OD of the test concentrations at 72 hours. Percentage inhibition values were calculated using 100−([(T−T0)/(C−T0)]×100). IC50 values were calculated in graph pad prism software using dose response curve nonlinear regression method.

The subject of a further experiment is SARS-CoV-2. The format is cell-based. The conditions noted are these: Vero cells, 36 hours.
The test system of experiment [2] is phosphorylated AKT and phosphorylated Ribosomal Protein S6. In words: Western blot of AKT and S6 phosphorylation in Hs578T cells. The format is cell-based, human. Conditions: 48 hours, indicated concentrations. As to the method:
Hs578T cells (human triple negative breast cancer) were treated with the indicated concentration of COMPOUND 1 for 48 hours prior to harvesting. The “0” concentration is DMSO only (0.5%, same as was used for compound doses). […] Analysis occurred via western blot using the indicated antibodies. Quantification by densitometry of the bands from the western blot are presented for phosphorylated AKT/Total AKT and phosphorylated Ribosomal Protein S6/Total Ribosomal Protein S6. COMPOUND 1 reduced both AKT and S6 phosphorylation relative to their respective total protein levels.
The data presented here are consistent with the previous replicate in Hs578T cells, and the observation is preserved in another TNBC cell line, BT-20. COMPOUND 1 reduces the phospho-AKT/vinculin loading control and phospho-S6/total S6 ratios. Methods are the same as the previous replicate, using the indicated doses.
Hs578T cells (human triple negative breast cancer) were treated with the indicated concentration of COMPOUND 6 for 48 hours prior to harvesting. The “0” concentration is DMSO only (0.5%, same as was used for compound doses). […] Analysis occurred via western blot using the indicated antibodies.
The data presented here are consistent with the previous replicate in Hs578T cells. COMPOUND 6 reduces the phospho-AKT/vinculin loading control and phospho-S6/total S6 ratios. Methods are the same as the previous replicate, using the indicated doses.
Hs578T cells (human triple negative breast cancer) were treated with the indicated concentration of COMPOUND 7 for 48 hours before harvesting. The “0” concentration is DMSO only (0.5%, same as was used for compound doses). […] Analysis occurred via western blot using the indicated antibodies.
The data presented here are consistent with the previous replicate in Hs578T cells. COMPOUND 7 reduces the phospho-S6/vinculin loading control ratio. Methods are the same as the previous replicate, using the indicated doses.
(§1) Hs578T cells (human triple negative breast cancer) were treated with the indicated concentration of COMPOUND 8 for 48 hours and then harvested. The “0” concentration is DMSO only (0.5%, same as was used for compound doses). […] Analysis occurred via western blot using the indicated antibodies.

For experiment [3], the system named is PD-L1. The experiment is described as follows: Western blot of PD-L1 in Hs578T cells. The format is cell-based, human. The conditions noted are these: 48 hours, indicated concentrations of compound. As to the method: Hs578T cells (human triple negative breast cancer) were treated with the indicated concentration of COMPOUND 1 for 48 hours prior to harvesting. The “0” concentration is DMSO only (0.5%, same as was used for compound doses). […] Analysis occurred via western blot using the indicated antibodies. Quantification by densitometry of the bands from the western blot are presented for PD-L1/Vinculin (loading control) in the absence of interferon gamma, and glycosylated/non-glycosylated PD-L1 in the presence of interferon gamma.
The data presented here are consistent with the previous replicate in Hs578T cells, and the observation is preserved in another TNBC cell line, BT-20. COMPOUND 1 increases PD-L1 levels and the glycosylated PD-L1/non-glycosylated PD-L1 ratio. Methods are the same as the previous replicate, using the indicated doses.
Hs578T cells (human triple negative breast cancer) were treated with the indicated concentration of COMPOUND 6 for 48 hours before harvesting. The “0” concentration is DMSO only (0.5%, same as was used for compound doses). […] Analysis occurred via western blot using the indicated antibodies. PD-L1 protein levels were reduced relative to the vinculin loading control upon compound treatment. This effect is observed in the presence and absence of interferon gamma (IFN, 25 ng/mL in cell culture media during the drug treatment).
Hs578T cells (human triple negative breast cancer) were treated with the indicated concentration of COMPOUND 7 for 48 hours prior to harvesting. The “0” concentration is DMSO only (0.5%, same as was used for compound doses). […] Analysis occurred via western blot using the indicated antibodies. PD-L1 protein levels were reduced relative to the vinculin loading control upon 319-02 treatment.
The data presented here are consistent with the previous replicate in Hs578T cells. COMPOUND 7 reduces the PD-L1/vinculin loading control ratio. Methods are the same as the previous replicate, using the indicated doses.
as §1
PD-L1-APC (BD Biosciences) and a matched isotype control were used to visualize PD-L1 cell surface expression by flow cytometry (1:250 dilution). As shown by western blot, the knockdown of WWP1 yielded increased PD-L1 protein levels, including an increase in the glycosylated band.
Total RNA was isolated using an RNeasy kit from Qiagen.

The subject of experiment [4] is PD-L1. The experiment is described as follows: Western blot of PD-L1 in multiple cancer cell lines after siRNA, shRNA or interferon gamma. Conditions: 25 ng/mL, 48 hours. The format is cell-based, human. From the text: Relative to the vinculin loading control, interferon gamma upregulates PD-L1 protein levels within TNBCs shown to express PD-L1 at baseline.
Analysis occurred via western blot using the indicated antibodies.

In the next experiment the test system is WWP1 mRNA. The experiment is described as follows: qPCR of WWP1 mRNA in Du145 shRNA cell lines. Conditions: vs empty vector control lines.
The subject of experiment [5] is WWP1. In words: Western blot of WWP1 protein levels after siRNA, shRNA, ASO or interferon gamma. The conditions noted are these: A549 and Hs578T cells, 25 ng/mL, 48 hours.
Protocol: Cells were treated with 10 nM pooled siRNA (IDT) and harvested 48 hours after. Cells were lysed in RIPA buffer containing protease and phosphatase inhibitors on ice.
Prior to harvesting, A549 and Hs578T cells were cultured for 48 hours in the presence or absence of interferon gamma (25 ng/mL in the cell culture media) or 10 nM pooled siRNA (IDT). Cells were lysed in RIPA buffer containing protease inhibitors on ice. Lysates were analyzed by western blot using the indicated antibodies.
Hs578T, BT-20 and A549 cells were cultured for 48 hours in the presence or absence of interferon gamma (25 ng/mL in the cell culture media), presence of absence of 10 nM pooled siRNA (IDT), or both. […] Lysates were analyzed by western blot using the indicated antibodies. […]
Cells were treated with 10 nM pooled siRNA for the indicated gene (IDT) and harvested 48 hours after (split for protein and RNA analysis). […] Lysates were analyzed by western blot using the indicated antibodies.
Cells were treated with 10 nM pooled siRNA for the indicated gene (IDT) and harvested after 48 hours. […] Lysates were analyzed by western blot using the indicated antibodies.
RNAiMax Lipofectamine (Thermo) was used as the transfection reagent at the manufacturer's recommended concentration. […] Western blots were used to quantify protein levels, using antibodies against Vinculin and WWP1.

T1 sequence (Q9H0M0 whole entry): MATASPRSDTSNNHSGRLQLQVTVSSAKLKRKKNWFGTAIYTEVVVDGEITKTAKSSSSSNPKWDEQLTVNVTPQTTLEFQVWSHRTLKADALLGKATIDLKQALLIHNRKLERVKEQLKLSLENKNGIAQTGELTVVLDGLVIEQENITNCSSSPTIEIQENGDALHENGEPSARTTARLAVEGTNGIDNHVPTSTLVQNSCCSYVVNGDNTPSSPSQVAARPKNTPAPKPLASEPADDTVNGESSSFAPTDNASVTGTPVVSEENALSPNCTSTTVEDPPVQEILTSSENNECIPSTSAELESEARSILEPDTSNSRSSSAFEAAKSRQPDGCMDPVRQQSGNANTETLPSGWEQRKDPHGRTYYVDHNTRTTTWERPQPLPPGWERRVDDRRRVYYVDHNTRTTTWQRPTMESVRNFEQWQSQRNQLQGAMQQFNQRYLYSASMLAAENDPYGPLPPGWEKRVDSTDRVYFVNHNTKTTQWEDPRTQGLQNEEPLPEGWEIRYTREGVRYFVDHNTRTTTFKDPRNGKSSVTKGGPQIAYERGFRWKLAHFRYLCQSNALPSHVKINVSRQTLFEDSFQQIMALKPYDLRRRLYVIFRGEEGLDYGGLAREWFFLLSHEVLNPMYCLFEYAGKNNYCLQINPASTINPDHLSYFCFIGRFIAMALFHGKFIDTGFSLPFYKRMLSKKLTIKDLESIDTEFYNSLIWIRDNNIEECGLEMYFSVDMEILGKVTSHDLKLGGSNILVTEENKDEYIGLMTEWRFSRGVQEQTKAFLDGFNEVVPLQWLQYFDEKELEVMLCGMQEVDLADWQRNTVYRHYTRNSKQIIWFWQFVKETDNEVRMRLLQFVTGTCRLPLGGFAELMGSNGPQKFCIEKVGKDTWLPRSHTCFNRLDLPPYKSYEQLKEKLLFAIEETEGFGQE
Protocol for WWP1 mRNA: All shRNA constructs were introduced through lentiviral infection under puromycin selection. Cells were cultured for 48 hours in the presence or absence of interferon gamma (25 ng/mL in the cell culture media) at which time a fraction of cells was split for protein and mRNA evaluation. For protein, cells were lysed in RIPA buffer containing protease inhibitors on ice. Total RNA was isolated using the RNeasy kit from Qiagen, prior to reverse transcription to obtain cDNA.

The compound `Fc1ccc2[nH]cc(Cc3c[nH]c4ccc(F)cc34)c2c1` [Compound 9, bis(5-fluoro-1H-indol-3-yl)methane] yielded an IC50 against WWP1 [1] of 66 µM.
Take `C#CCNC(=O)c1ccc2c(Cc3c[nH]c4ccccc34)c(C)[nH]c2c1` [Compound 5, 3-((1H-indol-3-yl)methyl)-2-methyl-N-(prop-2-yn-1-yl)-1H-indole-6-carboxamide]: the IC50 stood at 45 µM against WWP1 [1] and 5.48 µM with DU-145 cells.
For `O=C(O)c1ccc2c(Cc3c[nH]c4ccccc34)c[nH]c2c1` [Compound 4, 3-((1H-indol-3-yl)methyl)-1H-indole-6-carboxylic acid] the same measures were 29 µM and 0.08 µM.
Regarding `OCc1c[nH]c2ccccc12` [Compound I3C, Indole-3-carbinol], the “impact on SARS-CoV-2 infection” value in the experiment on SARS-CoV-2 (2.5 μM) is “little impact on infection”. In the experiment with SARS-CoV-2 (5 μM), the “inhibition of SARS-CoV-2 infection” value was over 75%.
Turning to `Fc1cccc2[nH]cc(Cc3c[nH]c4cccc(F)c34)c12` [Compound 8, bis(4-fluoro-1H-indol-3-yl)methane], the IC50 on WWP1 [1] was determined as 49 µM; in the experiment on DU-145 cells, 12 µM. The “S6 phosphorylation (relative to total S6 or vinculin loading control)” value in experiment [2] was “reduced”. Also, the “PD-L1 levels (relative to vinculin loading control)” value with PD-L1 [3] was “reduced”.
On to `O=C(O)c1ccc2[nH]cc(Cc3c[nH]c4ccccc34)c2c1` [Compound 3, 3-((1H-indol-3-yl)methyl)-1H-indole-5-carboxylic acid], for which the IC50 at WWP1 [1] is about 300 µM.
In turn, `N#Cc1cc(NC(=O)c2ccc3c(c2)c(C=O)cn3-c2ccccc2)ccn1` [Compound 2, N-(2-cyanopyridin-4-yl)-3-formyl-1-phenyl-1H-indole-5-carboxamide] registered an IC50 against WWP1 [1] of 26 µM.
Take “interferon gamma: interferon gamma, a stimulator of PD-L1 expression”: in the experiment with PD-L1 [4] (MCF-7 cells (ER+)), the “induced PD-L1 expression” value is on record as “not readily observable”. Moreover, the “PD-L1 protein levels relative to vinculin” value with PD-L1 [4] (TNBCs (Hs578T, BT-20)) is on record as “upregulates”. In the experiment with WWP1 mRNA, the “KD (reduction) of WWP1 mRNA by qPCR” value was found to be 15%. Besides, in the experiment on WWP1 [5], the WWP1 levels result is “reduced”.

The values above are taken from US20230227406A1, “MODULATORS OF E3 LIGASES” (Rekindle Therapeutics Inc., priority 2020, published 2023).
